Experimental findings from patent publication US12129312B2, “Peptide compound, application thereof and composition containing same” (priority 2017, dated 2024) are described below.

Data set [1] has as its target T1, human Chemokine like receptor 1 (Homo sapiens, UniProt Q99788).
T1 construct: host or cells: U2OS (Tango CMKLR1-bla U2OS)
T1 sequence (Q99788 1-373): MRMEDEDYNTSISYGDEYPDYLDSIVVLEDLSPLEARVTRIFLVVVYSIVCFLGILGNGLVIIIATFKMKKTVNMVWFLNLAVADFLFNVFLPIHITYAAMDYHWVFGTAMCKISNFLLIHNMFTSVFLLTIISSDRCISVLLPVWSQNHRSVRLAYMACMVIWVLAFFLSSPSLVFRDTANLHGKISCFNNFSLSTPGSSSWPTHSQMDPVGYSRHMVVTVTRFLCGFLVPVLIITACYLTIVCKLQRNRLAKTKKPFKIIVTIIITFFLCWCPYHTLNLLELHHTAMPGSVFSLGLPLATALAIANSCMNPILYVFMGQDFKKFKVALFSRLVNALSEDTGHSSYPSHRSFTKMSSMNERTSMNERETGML
The data set is described as follows: Activation of Tango CMKLR1-bla U2OS cells (beta-lactamase FRET reporter). It is filed as cell-based. Summed up: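 Agonist mode in Tango CMKLR1-bla U2OS cells, 10000 cells/well seeded overnight, then 10-point 3-fold compound dilutions from 10 mM DMSO stock applied for 4 h at 37 °C, 5% CO2. Beta-lactamase reporter read with CCF4-AM FRET substrate; peptide (D-Tyr)-Phe-Leu-Pro-(D-Ser)-Gln-Phe-(D-Ala)-Tic-Ser served as positive control.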

Data set [2] in a line: Plasma stability, human plasma. It is filed as in vitro ADME. Conditions: 37° C., time points 0 minute, 1, 2 and 4 hours, LC-MS/MS, read-out: Human plasma (T1/2 (h)) (converted). On the procedure: (§1) 1. Preparation of 50 mM Phosphate Buffer (50 mM Sodium Phosphate and 70 mM NaCl):
(§2) 5.750 g of Na2HPO4, 1.141 g of NaH2PO4 and 4.095 g of NaCl (Shanghai Titan) were weighed and dissolved in 1000 mL of ultrapure water and the pH was adjusted to 7.4. The prepared phosphate buffer was stored in the refrigerator at 4° C., valid for one week.
(§3) 2. Preparation of Compound Stock Solution:
(§4) 1) 5 mg/mL test compound: 5 mg of compound was weighed and dissolved in 1 mL of DMSO.
(§5) 2) 20 mM control: 2.728 mg of nococaine was dissolved in 0.5 mL of DMSO. 3.878 mg of fenfluramide was dissolved in 0.5 mL of DMSO (Amresco).
(§6) 3. Preparation of Experimental Plasma:
(§7) The frozen plasma (human: Shanghai ChemPartner, Rat, Mouse: Shanghai Xipuer-Beikai, Dog, Monkey: Suzhou Xishan Zhongke) was taken out from the −80° C. refrigerator, immediately placed in a 37° C. water bath, and thawn with gentle shaking. The thawed plasma was poured into a centrifuge tube, and centrifuged at 3000 rpm for 8 minutes. The supernatant was collected for the experiment. The pH of the plasma was measured with a pH meter (METTLER TOLEDO), and only the plasma with a pH between 7.4 and 8 was used for the experiment. The plasma was placed on an ice bath for later use.
(§8) 4. Preparation of the Dosing Solution:
(§9) 1) 125 μg/mL test compound solution: 5 μL of 5 mg/mL test compound (see step 2) was added to 195 μL DMSO; 500 μM control solution: 20 mM control stock solution (see step 2) was added to 195 μL DMSO.
(§10) 2) 0.5% BSA phosphate buffer solution: 0.05 g of BSA was added to 10 mL of phosphate buffer (see step 1).
(§11) 3) 5 μg/mL test compound dosing solution: 40 μL of 125 μg/mL test compound solution was added to 960 μL of 0.5% BSA phosphate buffer solution, shaken and mixed evenly, and the dosing solution was placed in a 37° C. water bath and preheated for 5 minutes.
(§12) 20 μM control dosing solution: 40 μL of 500 μM control solution was added to 960 μL of 0.5% BSA phosphate buffer solution, shaken and mixed evenly, and the dosing solution was placed in a 37° C. water bath and preheated for 5 minutes.
(§13) 5. 10 μL of 5 μg/mL test compound and 20 μM control solution were added to the wells of the 96-well plate set at different time points (0 minute, 1 hour, 2 hours and 4 hours). The number of duplicate samples was 3.
(§14) 6. 500 μL of ACN (IS) containing 5% FA was added to the wells set at 0 minute. 90 μL of plasma was then added thereto, mixed evenly, sealed with the film and stored at 4° C. (the number of duplicates was 3).
(§15) 7. 90 μL of plasma was added to the wells set at 1 hour, 2 hours and 4 hours (the number of replicates was 3), followed by timing (the final concentration of the test compound was 500 ng/mL, and that of the control was 2 μM).
(§16) 9. All samples (0 minutes, 1 hour, 2 hours, and 4 hours) at different time points on the 96-well plate were placed on a shaker (IKA, MTS 2/4) and shaken at 600 rpm for 60 minutes. The samples were then centrifuged for 15 minutes on a centrifuge machine (Thermo Multifuge×3R) at 5594×g.
(§17) 10. 150 μL of the supernatant was taken out from the centrifuged sample and sent to LC-MS/MS for analysis (conventional peptide LC-MS/MS analysis).

The nature of data set [3]: Plasma stability, mouse plasma. It is filed as in vitro ADME. Conditions: 37° C., 0-4 hours, LC-MS/MS, "Very long" = no significant degradation found in the test (4 hours); for Mouse plasma (T1/2 (h)): 500 ng/mL; for half-life at 500 ng/mL: read-out: Mouse plasma (T1/2 (h)) (converted). On the procedure: as §1, §2, §3, §4, §5, §6, §7, §8, §9, §10, §11, §12, §13, §14, §15, §16, §17

[4] abbreviates: determination by the method of Effect Embodiment 1, read-out: EC50.

Read-outs that look alike come from different tables or passages of the source. Square brackets hold non-standard residues; d marks the D form. Peptide text beside a SMILES is read from it. * marks the point of attachment. PEG8 = NCCOCCOCCOCCOCCOCCOCCOCCOCCC(=O)O; 2Nal = N[C@@H](Cc1ccc2ccccc2c1)C(=O)O; dNMeY = CN[C@H](Cc1ccc(O)cc1)C(=O)O; Palmitoyl = CCCCCCCCCCCCCCCC(=O)*; Tic = O=C(O)[C@@H]1Cc2ccccc2CN1; NMeL = CN[C@@H](CC(C)C)C(=O)O; NMeS = CN[C@@H](CO)C(=O)O; Thz = O=C(O)[C@@H]1CSCN1; βAla = NCCC(=O)O

For orientation: EC50 means the midpoint of the concentration-response curve. `CC(C)C[C@@H](C(=O)N1CSC[C@H]1C(=O)N[C@H](CO)C(=O)N[C@@H](CCC(N)=O)C(=O)N[C@@H](Cc1ccc2ccccc2c1)C(=O)N[C@H](C)C(=O)N1Cc2ccccc2C[C@H]1C(=O)N[C@@H](CO)C(=O)O)N(C)C(=O)[C@H](Cc1ccccc1)NC(=O)[C@H](N)Cc1ccc(O)cc1` [YW-122, (D-Tyr)-Phe-(NMe-Leu)-Thz-(D-Ser)-Gln-2Nal-(D-Ala)-Tic-Ser-OH] (H-[dY]F[NMeL][Thz][dS]Q[2Nal][dA][Tic]S-OH): the EC50 in data set [1] is 0.6 nM. The half-life at 500 ng/mL in data set [2] is 79.6 h. Also, the “Mouse plasma (T1/2 (h))” value in data set [3] was “Very long”.
In the case of `CN[C@H](Cc1ccc(O)cc1)C(=O)N[C@@H](Cc1ccccc1)C(=O)N(C)[C@@H](CC(C)C)C(=O)N1CSC[C@H]1C(=O)N[C@H](CO)C(=O)N[C@@H](CCC(N)=O)C(=O)N[C@@H](Cc1ccc2ccccc2c1)C(=O)N[C@H](C)C(=O)N1Cc2ccccc2C[C@H]1C(=O)N(C)[C@@H](CO)C(=O)O` [YW-125, (D-NMe-Tyr)-Phe-(NMe-Leu)-Thz-(D-Ser)-Gln-2Nal-(D-Ala)-Tic-(NMe-Ser)-OH] (H-[dNMeY]F[NMeL][Thz][dS]Q[2Nal][dA][Tic][NMeS]-OH; N-terminus assumed), in data set [1] (setting [4]), the EC50 is 0.6 nM. Besides, the “Mouse plasma (T1/2 (h))” value in data set [3] was “Very long”.
Turning to `CCCCCCCCCCCCCCCC(=O)NCCOCCOCCOCCOCCOCCOCCOCCOCCC(=O)NCC(=O)NCC(=O)N[C@H](Cc1ccc(O)cc1)C(=O)N[C@@H](Cc1ccccc1)C(=O)N(C)[C@@H](CC(C)C)C(=O)N1CCC[C@H]1C(=O)N[C@H](CO)C(=O)N[C@@H](CCC(N)=O)C(=O)N[C@@H](Cc1ccccc1)C(=O)N[C@H](C)C(=O)N1Cc2ccccc2C[C@H]1C(=O)N[C@@H](CO)C(=O)O` [YW-133, Palm-PEG8-Gly-Gly-(D-Tyr)-Phe-(NMe-Leu)-Pro-(D-Ser)-Gln-Phe-(D-Ala)-Tic-Ser-OH] ({Palmitoyl-PEG8}-GG[dY]F[NMeL]P[dS]QF[dA][Tic]S-OH), the EC50 in data set [1] (setting [4]) worked out at 0.7 nM. In addition, the half-life at 500 ng/mL was 13.7 h in data set [2] and 67.1 h in data set [3].
In the case of `CCCCCCCCCCCCCCCC(=O)NCCOCCOCCOCCOCCOCCOCCOCCOCCC(=O)NCCC(=O)NCCC(=O)N[C@H](Cc1ccc(O)cc1)C(=O)N[C@@H](Cc1ccccc1)C(=O)N(C)[C@@H](CC(C)C)C(=O)N1CCC[C@H]1C(=O)N[C@H](CO)C(=O)N[C@@H](CCC(N)=O)C(=O)N[C@@H](Cc1ccccc1)C(=O)N[C@H](C)C(=O)N1Cc2ccccc2C[C@H]1C(=O)N[C@@H](CO)C(=O)O` [YW-134, Palm-PEG8-βAla-βAla-(D-Tyr)-Phe-(NMe-Leu)-Pro-(D-Ser)-Gln-Phe-(D-Ala)-Tic-Ser-OH] ({Palmitoyl-PEG8-βAla-βAla}-[dY]F[NMeL]P[dS]QF[dA][Tic]S-OH), in data set [1] (setting [4]), the EC50 was found to be 0.7 nM. Besides, the half-life at 500 ng/mL in data set [2] was 14 h; in data set [3], 11.4 h.
